The source of these data is PubChem BioAssay (NCI).

Molecules are shown by their SMILES.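 Cells were grown in 96-well plates and exposed to each compound for 48 hours at five concentrations; endpoints were interpolated linearly between bracketing concentrations, or set to the highest concentration if not reached. GI50 = concentration required for 50% inhibition of growth. TGI is the concentration that stops growth completely.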

Holding throughout (assay): NCI-60 cell line screen, 48 h
Experiment [1] concerns COLO 205 colon.
Experiment [2] has as its system HT29 colon.
Experiment [3] relates to MALME-3M melanoma.
The subject of experiment [4] is MCF7 breast.
Experiment [5] relates to MDA-MB-231 breast.
Experiment [6] has as its system OVCAR-5 ovarian.
The subject of experiment [7] is SK-MEL-28 melanoma.
For experiment [8], the system named is SK-MEL-5 melanoma.
The test system of experiment [9] is SNB-19 CNS.
Experiment [10] concerns U251 CNS.

`CC12C=CC(C)(O1)C1C2c2ccccc2S1(=O)=O` (centres undefined): the GI50 was > 100 µM in experiment [1]; > 100 µM in [2]; 50.3 µM in [3]; 50.4 µM in [4]; 69.9 µM in experiment [5]; > 100 µM in experiment [6]. Also, the GI50 in experiment [7] is 91.9 µM; in experiment [8], 38.7 µM; in [9], > 100 µM; in [10], > 100 µM. Besides, the TGI in experiment [1], in [2], in experiment [3], in experiment [4], in experiment [5] and in experiment [6] was > 100 µM each time. The TGI in experiment [7], in experiment [8], in experiment [9] and in experiment [10] was > 100 µM throughout.

In the case of `COC(=O)[C@]12CC[C@@H](C)[C@H](C)[C@@H]1C1=CC[C@@H]3[C@@]4(C)C(c5ncon5)=C[C@@](C)(CO)C4=CC[C@@]3(C)[C@]1(C)CC2`, the GI50 in [1] was 1.96 µM; in [2], 1.94 µM; in experiment [3], 1.67 µM; in [4], 1.42 µM; in [5] it was 2.2 µM; in experiment [6], 5.2 µM. For the same compound, the figures for the GI50 in [8], in experiment [9] and in experiment [10] were 1.88 µM, 2.84 µM and 2.02 µM, respectively. Moreover, the TGI in [1] stood at 4.15 µM; in experiment [2], 3.88 µM; in experiment [3], 3.55 µM; in [4] it was 2.9 µM; in experiment [5], 5.08 µM; in experiment [6], 26.8 µM. Besides, the TGI in experiment [8] was found to be 3.41 µM; in experiment [9] it was 11.6 µM; in experiment [10], 3.84 µM.

Take `COC(=O)c1[nH]nc(-c2ccccc2)c1N1CCCCC1`: the GI50 in experiment [1] was > 100 µM; in [2], 57.9 µM; in [3], 39.3 µM; in experiment [4], 29.5 µM; in experiment [5], 31.2 µM; in [6], 51.7 µM. Moreover, the GI50 in experiment [7] is 52.1 µM; in experiment [8], 34 µM; in experiment [9], 36.2 µM; in [10] it was 26.6 µM. Besides, the TGI in [1] is > 100 µM; in [2], > 100 µM; in [3], > 100 µM; in [4], > 100 µM; in [5], 65.9 µM; in experiment [6], > 100 µM. For the same compound, the TGI is > 100 µM in [7], > 100 µM in [8], > 100 µM in [9] and 78.8 µM in experiment [10].

Consider `O=C1C[C@@H](c2ccccc2)NCCCCN(O)CCCN1`, for which the TGI in experiment [1], in experiment [2], in experiment [3], in [4], in [5] and in [6] was > 100 µM in each case. The TGI in experiment [7], in experiment [8], in [9] and in experiment [10] was > 100 µM throughout.

`COc1cc2c(cc1OCCCCCCNC(=O)c1cc3ccccc3[nH]1)N=CC1CCCN1C2=O` (centres undefined): the GI50 in experiment [1] was 45.4 µM; in experiment [2], 41.8 µM; in experiment [3], 20.5 µM; in experiment [4], 27.3 µM; in experiment [5], 20.9 µM; in experiment [6], > 100 µM. Further, the GI50 is > 100 µM in [7], 14.2 µM in experiment [8], 63.1 µM in experiment [9] and 40 µM in experiment [10]. The TGI is > 100 µM in experiment [1]; > 100 µM in [2]; > 100 µM in experiment [3]; > 100 µM in [4]; 79.1 µM in [5]; > 100 µM in experiment [6]. For the same compound, the TGI is > 100 µM in [7], 32 µM in experiment [8], > 100 µM in experiment [9] and > 100 µM in experiment [10].

In the case of `CC(C)[C@@H](C(=O)O[C@@H]1/C=C/C(=O)O[C@@H](C)CCC/C=C/[C@@H]2C[C@H](O)C[C@H]21)[N+](C)(C)C`, the GI50 in experiment [1], in experiment [2], in [3], in experiment [4], in [5] and in experiment [6] was > 100 µM each time. Further, the GI50 in experiment [7], in experiment [8], in experiment [9] and in [10] was > 100 µM throughout. In addition, the TGI in [1], in [2], in experiment [3], in experiment [4], in experiment [5] and in experiment [6] was > 100 µM each time. Besides, the TGI in [7], in experiment [8], in [9] and in experiment [10] was > 100 µM in each case.

Regarding `c1ccc(-c2n(Cc3ccc4ccccc4n3)c3ccccc3[n+]2Cc2ccc3ccccc3n2)cc1`, the GI50 in experiment [1] is 0.181 µM; in experiment [2], 0.221 µM; in [3], 0.336 µM; in experiment [4], 0.274 µM; in experiment [5], 0.269 µM; in experiment [6] it was 0.376 µM. Moreover, the GI50 in experiment [7] is 0.359 µM; in [8], 0.219 µM; in experiment [9] it was 0.277 µM; in experiment [10], 0.243 µM. The TGI in experiment [1] worked out at 0.415 µM; in experiment [2], 1.23 µM; in [3], 1.65 µM; in [4], 1.2 µM; in [5] it was 1.3 µM; in experiment [6] it was 2 µM. In addition, the TGI is 1.44 µM in experiment [7], 0.502 µM in experiment [8], 1.31 µM in [9] and 1.19 µM in experiment [10].

For `O=C(Cc1ccccc1)Nc1nnc(CCSCCc2nnc(NC(=O)Cc3ccccc3)s2)s1`, the GI50 was > 100 µM in [1]; > 100 µM in [2]; 13.5 µM in experiment [3]; 32.6 µM in experiment [4]; 6.51 µM in experiment [5]; > 100 µM in experiment [6]. In addition, the GI50 in experiment [7] was 13.2 µM; in experiment [8] it was 58 µM; in experiment [9], 11.2 µM; in experiment [10] it was 4.1 µM. The TGI in experiment [1] is > 100 µM; in experiment [2] it was > 100 µM; in experiment [3] it was 48.9 µM; in experiment [4] it was > 100 µM; in experiment [5], 25.7 µM; in experiment [6], > 100 µM. The TGI in [7] was > 100 µM; in experiment [8], > 100 µM; in [9], 33.3 µM; in experiment [10] it was 18.3 µM.

Consider `c1ccc(Cn2cc3c(c2)-c2oncc2CC3)cc1`, for which the GI50 in experiment [1] is 0.467 µM; in [2], 0.398 µM; in experiment [3] it was 17.9 µM; in [4], 0.349 µM; in [5] it was 1.36 µM; in experiment [6] it was 2.3 µM. For the same compound, the GI50 in [7] is 4.27 µM; in experiment [8], 0.348 µM; in experiment [9], 1.27 µM; in experiment [10], 0.552 µM. The TGI was 2.55 µM in experiment [1]; 13.6 µM in experiment [2]; > 67.8 µM in experiment [3]; > 100 µM in [4]; 51.9 µM in [5]; > 92.4 µM in experiment [6]. For the same compound, the TGI in experiment [7] was > 100 µM; in experiment [8], 11.8 µM; in experiment [9], > 100 µM; in experiment [10], 33 µM.

As for `CC1OC(OC2C(OC3C[C@@]4(C)C(C[C@H](O)[C@H]5[C@H](C6(C)CCC(C(C)(C)O)O6)CCC54C)[C@]4(C)CC[C@@H](O)C(C)(C)C34)OC(CO)C(O)C2O)C(O)C(O)C1O` (some centres undefined) (tested in a mixture with another compound), the TGI in experiment [1], in experiment [2], in experiment [4], in [5], in [6] and in [7] was > 100 µM in each case. In addition, the TGI in experiment [8], in experiment [9] and in experiment [10] was > 100 µM throughout.

Consider `COc1ccc(S(=O)(=O)O)cc1NS(=O)(=O)c1ccc(C)cc1`, for which the TGI in [1], in [2], in experiment [4], in [5], in experiment [6] and in experiment [7] was > 100 µM each time. For the same compound, the TGI in experiment [8], in [9] and in [10] was > 100 µM each time.

In the case of `CC(=O)OC1CCC2(C)C(CCC3C2CCC2(C)C(C4=CC(=O)OC4)CCC32)C1` (centres undefined), the GI50 in [1] is 12.8 µM; in experiment [2] it was 13.1 µM; in experiment [3] it was 4.23 µM; in experiment [4], 9.07 µM; in [5] it was 0.725 µM; in experiment [6], 11.5 µM. Besides, the GI50 is 4.75 µM in experiment [7], 2.37 µM in [8] and 8.49 µM in [9]. Further, the TGI in experiment [1] was > 100 µM; in [2], 75.6 µM; in [3] it was 23.1 µM; in [4], 95.7 µM; in experiment [5] it was 2.81 µM; in experiment [6] it was 55.8 µM. The values for the TGI in experiment [7], in experiment [8] and in experiment [9] were 22 µM, 6.58 µM and 38.4 µM, respectively.

Consider `Cc1cc[c-]cc1.Fc1c[c-]c(-c2ccccn2)c(F)c1.N#CCC[PH+](CCC#N)c1ccccc1.[Pt+2]`, for which the GI50 in experiment [2] was 3.24 µM; in experiment [4], 2.68 µM; in experiment [5] it was 2.74 µM; in experiment [6] it was 3.79 µM; in [7], 2.18 µM; in [8], 2.24 µM. The values for the GI50 in experiment [9] and in experiment [10] were 4.91 µM and 3.61 µM, respectively. The TGI turned out to be 17.8 µM in [2]; 17.6 µM in [4]; 7.57 µM in experiment [5]; 19.6 µM in experiment [6]; 4.84 µM in [7]; 5.36 µM in experiment [8]. Moreover, the values for the TGI in experiment [9] and in experiment [10] were > 100 µM and 15.4 µM, respectively.

Regarding `Nc1c(C(=O)Nc2cccc3ccccc23)sc2nc3c(cc12)CCCC3`, the GI50 in [1] is 2.45 µM; in [2] it was 1.18 µM; in experiment [4], 0.0577 µM; in [5], 5.23 µM; in experiment [6] it was > 100 µM; in [7], 19.2 µM. The values for the GI50 in experiment [8], in experiment [9] and in experiment [10] were 0.459 µM, 4.12 µM and 0.781 µM, respectively. Besides, the TGI in [1] was 9.53 µM; in experiment [2], > 100 µM; in [4], > 100 µM; in [5], > 100 µM; in experiment [6] it was > 100 µM; in experiment [7] it was > 100 µM. The TGI is 10.7 µM in experiment [8], > 100 µM in experiment [9] and > 100 µM in [10].

Consider `CSc1nc(Cl)c(Br)c(Nc2c[nH]c(=O)[nH]c2=O)n1`, for which the TGI in experiment [1] was 32.9 µM; in experiment [2], 29.4 µM; in [3] it was 43.9 µM; in experiment [4], > 100 µM; in experiment [5], 30.1 µM; in [7] it was 95.8 µM. Moreover, the TGI was determined as 42.6 µM in experiment [8], 44.9 µM in experiment [9] and 48.5 µM in experiment [10].

For `C/C1=C\CC[C@@](C)(O)[C@H]2C[C@H](CC/C(C)=C/CC1)C1(CC1)C(=O)O2`, the GI50 in experiment [1] is 32.5 µM; in [2], 36.6 µM; in experiment [4] it was 21 µM; in experiment [5], 17.5 µM; in experiment [6], 31.4 µM; in experiment [7] it was 45.3 µM. Moreover, the GI50 in experiment [8] is 18.6 µM; in experiment [9], 85.6 µM; in [10] it was 17.5 µM. Also, the TGI in experiment [1] was > 100 µM; in experiment [2] it was > 100 µM; in [4], 57.4 µM; in experiment [5] it was 35.1 µM; in experiment [6] it was 80 µM; in [7], > 100 µM. The TGI was 35.1 µM in experiment [8], > 100 µM in experiment [9] and 37.1 µM in experiment [10].

Consider `N#Cc1cc2cc3c4c(c2oc1=O)CCCN4CCC3`, for which the TGI in [1], in experiment [2], in experiment [4], in experiment [5], in [6] and in experiment [7] was > 100 µM throughout. Besides, the TGI in experiment [8], in experiment [9] and in [10] was > 100 µM in each case.
